In general, AC50 refers to the midpoint of the concentration-response curve, whichever way the signal moves. As a reminder, the IC50 is the concentration that gives 50% inhibition. Broadly, the EC50 is the concentration that produces a half-maximal response.

This is an account of results in ChEMBL document CHEMBL1201862, “PubChem BioAssay data set” (2004).

The source made the active and inactive calls.

Experiment [1] has as its target Endoplasmic reticulum aminopeptidase 1 (Homo sapiens, UniProt Q9NZ08). Nature of the experiment: inhibition of human ERAP1 enzyme activity – biochemical, cherry-pick, set 2, plate reader, dose response (AID 743314).
Experiment [2] can be described thus: viability inhibitors of stage V gametocytes – luminescence, dose response (AID 1117278).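 Also: gametocytes exposed to compound for 24 hours.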 The experiment is classed as functional, cell-based.
Experiment [3] can be described thus: viability loss in human Jurkat cells – cell-based, luminescence, cytotoxicity control for P. falciparum gametocyte viability project, dose response (AID 1117277).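 Also: potency reflects loss of cellular ATP meaning fewer viable cells.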 The experiment is classed as functional.
For another experiment, the target named is Prothrombin (Homo sapiens, UniProt P00734). Nature of the experiment: Thrombin 1536 HTS Dose Response Confirmation. [Related pubchem assays: 1046 (Thrombin 1536 HTS; hits were confirmed in this assay)]. Format: functional.
Experiment [4] can be described thus: IC50 of Artemis nuclease activity blockers – biochemical, fluorescence intensity, dose response (AID 720701).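 Also: Artemis endonuclease enzyme.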 The experiment is classed as functional.
Experiment [5] is described as follows: Luminescence-based cell-based high throughput dose response assay to identify activators of the DAF-12 from the parasite S. stercoralis (ssDAF-12). Format: functional.
A short description of experiment [6]: OVCAR-3 cell viability loss – plate reader, dry powder samples, PAX8 inhibitor project, dose response (AID 743044). Format: functional, cell-based.
The next experiment concerns the target Paired box protein Pax-8 (Homo sapiens, UniProt Q06710). Nature of the experiment: PAX8 transcriptional activity inhibition in RMG-I – RMG-I cells, luciferase, cherry-pick, dose response (AID 687027).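 Also: luciferase reporter driven by Pax8 target thyroperoxidase promoter measured by SteadyGlo luminescence.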 Format: functional, cell-based.
Experiment [7] is described as follows: OVCAR8 cell viability loss – plate reader, dry powder samples, PAX8 project, dose response (AID 743197). Particulars: OVCAR-8. The experiment is classed as functional, cell-based.
Experiment [8] can be described thus: IGROV1 cell killing – plate reader, dry powder samples, PAX8 inhibitor project, dose response (AID 743043). The experiment is classed as functional, cell-based. The conditions noted are these: IGROV-1.
The nature of experiment [9]: toxicity toward immortalized ovarian surface epithelium – cell-based, plate reader, dry powder samples, cytotoxicity control for PAX8 inhibitor project, dose response (AID 743045). The experiment is classed as functional.
Experiment [10] is described as follows: viability loss in HepG2 hepatoma cells – cell-based, ATP luminescence, cherry-pick, activator set 2, cytotoxicity control, dose response (AID 1053143). Format: functional.
Experiment [11] is described as follows: NIH-3T3 fibroblast cytotoxicity, dose response, cytotoxicity control, cell-based, fluorescence, Alamar Blue, secondary assay (AID 2327).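 Also: NIH-3T3 mouse fibroblasts cultured with fluconazole at 8 µg/mL.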 The experiment is classed as functional. Background: Alamar Blue is a resazurin reagent that responds to reducing activity.
A further experiment concerns the target T1, Aminopeptidase N (Plasmodium falciparum FcB1/Columbia, UniProt O96935).
T1 sequence (O96935 whole entry): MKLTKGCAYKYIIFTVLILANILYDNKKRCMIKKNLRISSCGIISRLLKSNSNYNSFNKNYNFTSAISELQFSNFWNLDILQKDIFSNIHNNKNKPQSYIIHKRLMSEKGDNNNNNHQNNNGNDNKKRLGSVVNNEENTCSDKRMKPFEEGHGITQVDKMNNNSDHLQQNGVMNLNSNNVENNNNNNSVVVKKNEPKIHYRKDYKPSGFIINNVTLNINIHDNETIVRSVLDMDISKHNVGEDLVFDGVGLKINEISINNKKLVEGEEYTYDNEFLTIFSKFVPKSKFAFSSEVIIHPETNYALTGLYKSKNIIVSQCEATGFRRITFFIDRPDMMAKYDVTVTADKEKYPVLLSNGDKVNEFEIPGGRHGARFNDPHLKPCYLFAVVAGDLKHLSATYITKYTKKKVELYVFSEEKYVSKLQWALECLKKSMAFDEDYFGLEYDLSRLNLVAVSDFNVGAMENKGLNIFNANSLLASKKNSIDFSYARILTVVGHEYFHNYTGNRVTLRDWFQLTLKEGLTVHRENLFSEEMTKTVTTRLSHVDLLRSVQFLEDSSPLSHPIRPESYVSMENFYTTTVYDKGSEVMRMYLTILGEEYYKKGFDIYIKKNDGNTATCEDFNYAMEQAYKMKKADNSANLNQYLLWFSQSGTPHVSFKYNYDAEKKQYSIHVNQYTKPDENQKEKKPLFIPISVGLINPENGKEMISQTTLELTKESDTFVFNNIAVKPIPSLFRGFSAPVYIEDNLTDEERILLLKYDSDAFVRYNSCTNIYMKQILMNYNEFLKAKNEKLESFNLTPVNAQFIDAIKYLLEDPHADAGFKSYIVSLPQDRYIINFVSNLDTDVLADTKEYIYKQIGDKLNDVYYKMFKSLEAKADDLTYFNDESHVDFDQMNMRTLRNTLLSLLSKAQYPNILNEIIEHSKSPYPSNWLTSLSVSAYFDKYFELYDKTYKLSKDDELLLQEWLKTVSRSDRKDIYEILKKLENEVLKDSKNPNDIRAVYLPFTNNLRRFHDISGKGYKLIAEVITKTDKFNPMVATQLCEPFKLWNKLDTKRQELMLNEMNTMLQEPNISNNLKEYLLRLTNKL
Nature of the experiment: malaria alanyl aminopeptidase activity blockers – biochemical, fluorogenic H-Leu-NHMec substrate, 1536-well (AID 1445). On the set-up: species or system Plasmodium falciparum 3D7, 3D7.

In another experiment the test system is INS1. Nature of the experiment: INS-1E survival protection against cytokine death – cell-based, luminescence, retest, dose response (AID 449756).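 Also: cell death triggered by IL-1 beta plus TNF-alpha plus IFN-gamma mixture; protective hits raise ATP signal compared with cytokine alone wells.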 The experiment is classed as functional. Particulars: Rattus norvegicus.
Experiment [12] can be described thus: fluconazole-exposed Candida albicans growth modulators – fluorescence, retest, confirmation (AID 2467). The experiment is classed as functional, cell-based.
Experiment [13] in a line: rise of 2N DNA cells, HeLa – IC50, dose response (AID 1117349). Format: functional, cell-based.
A short description of experiment [14]: rise of 4N DNA cells, HeLa – IC50, dose response (AID 1117351). The experiment is classed as functional, cell-based.

Sequence of Endoplasmic reticulum aminopeptidase 1 (Q9NZ08 whole entry): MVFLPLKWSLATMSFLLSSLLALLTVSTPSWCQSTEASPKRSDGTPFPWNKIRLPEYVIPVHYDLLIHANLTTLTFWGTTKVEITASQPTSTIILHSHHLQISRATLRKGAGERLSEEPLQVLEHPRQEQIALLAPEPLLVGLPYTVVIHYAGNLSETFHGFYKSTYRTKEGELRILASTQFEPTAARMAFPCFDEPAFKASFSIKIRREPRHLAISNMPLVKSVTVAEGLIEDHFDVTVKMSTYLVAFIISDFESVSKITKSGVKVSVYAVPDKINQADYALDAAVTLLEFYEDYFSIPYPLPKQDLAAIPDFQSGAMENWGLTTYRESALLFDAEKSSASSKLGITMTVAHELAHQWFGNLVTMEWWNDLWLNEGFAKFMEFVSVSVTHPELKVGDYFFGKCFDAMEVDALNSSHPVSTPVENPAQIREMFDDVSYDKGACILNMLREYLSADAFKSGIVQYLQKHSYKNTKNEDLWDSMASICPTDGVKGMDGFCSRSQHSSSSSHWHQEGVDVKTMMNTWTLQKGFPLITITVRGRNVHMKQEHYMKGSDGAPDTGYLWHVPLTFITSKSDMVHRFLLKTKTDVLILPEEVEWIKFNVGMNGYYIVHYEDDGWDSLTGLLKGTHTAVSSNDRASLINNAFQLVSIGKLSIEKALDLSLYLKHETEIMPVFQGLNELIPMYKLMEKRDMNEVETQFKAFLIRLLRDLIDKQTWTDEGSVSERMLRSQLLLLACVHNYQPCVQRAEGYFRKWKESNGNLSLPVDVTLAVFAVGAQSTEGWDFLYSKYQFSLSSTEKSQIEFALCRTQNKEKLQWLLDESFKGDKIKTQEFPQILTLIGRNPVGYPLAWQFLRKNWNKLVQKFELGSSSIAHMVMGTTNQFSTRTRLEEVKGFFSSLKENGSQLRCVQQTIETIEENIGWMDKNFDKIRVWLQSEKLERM
Sequence of Paired box protein Pax-8 (Q06710 whole entry): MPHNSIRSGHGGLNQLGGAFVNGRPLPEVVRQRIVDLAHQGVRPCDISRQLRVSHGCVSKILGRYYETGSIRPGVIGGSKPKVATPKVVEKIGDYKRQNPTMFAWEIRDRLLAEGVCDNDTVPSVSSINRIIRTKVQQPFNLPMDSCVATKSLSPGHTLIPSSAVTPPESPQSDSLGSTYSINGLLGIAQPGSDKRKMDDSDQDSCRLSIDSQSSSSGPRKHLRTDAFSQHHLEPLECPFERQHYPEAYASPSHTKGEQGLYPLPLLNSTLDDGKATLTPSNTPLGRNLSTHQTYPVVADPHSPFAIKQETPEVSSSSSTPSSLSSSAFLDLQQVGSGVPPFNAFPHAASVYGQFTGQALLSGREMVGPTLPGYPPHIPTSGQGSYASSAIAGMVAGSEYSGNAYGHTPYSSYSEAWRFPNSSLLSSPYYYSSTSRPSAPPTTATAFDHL

For `CN1[C@@H]2c3ccc(/C=C/c4ccccc4)c(=O)n3C[C@@H]2[C@@H](CO)[C@@H]1C(=O)NC1CCCC1`, in experiment [1], the AC50 is 17.5 µM (active).
Consider `O=C(Cn1c(C(F)(F)F)nc2ccccc21)Nc1ccccc1C(=O)O`, for which the IC50 in experiment [2] was > 109 µM (inactive); in [3], > 83.3 µM (inactive).
For `COc1ccccc1C(=O)n1nc(-c2ccccc2)nc1NCc1ccco1`, the IC50 at Prothrombin was 0.223 µM (active).
Consider `COc1ccc(-c2nn(-c3ccccc3)cc2C(=O)Nc2nc(CC(C)=O)ns2)cc1`, for which the IC50 in experiment [4] was > 20 µM (inactive).
The same measure, in the same setting: in the case of `CCN1CCc2nc(NC(=O)C(c3ccccc3)c3ccccc3)sc2C1` it was > 20 µM (inactive).
For `CC(C)(C)C1CCC(=NN=C(S)Nc2cccnc2)CC1` (stereo unspecified), the IC50 in [5] was > 67.5 µM (inactive).
Take `COc1ccc(S(=O)(=O)N(C)C[C@@H]2Oc3ccc(NC(=O)Nc4ccc(C(F)(F)F)cc4)cc3CC(=O)N([C@H](C)CO)C[C@@H]2C)cc1`: the AC50 was 6.36 µM (active) in [6]; 4.64 µM (active) on Paired box protein Pax-8; 22.1 µM (active) in experiment [7]; 16.8 µM (active) in experiment [8]; 13.8 µM (active) in experiment [9].
As for `Cc1ccc(S(=O)(=O)N2CCN(Cc3ccccc3)CC2)c(C)c1N(C)S(=O)(=O)c1ccccc1`, the IC50 in experiment [2] was > 109 µM (inactive); in experiment [3], > 83.3 µM (inactive).
For `O=C(Oc1c(CN2CCOCC2)cc(Cl)c2cccnc12)c1cccs1`, the AC50 in experiment [10] is 26 µM (active); with INS1 it was 4.67 µM (active). The EC50 was > 160 µM (inactive) in experiment [11] and 2.63 µM (active) in [12]. Moreover, the IC50 at Aminopeptidase N was 72.3 µM (active).
For `CCC(C)n1ncn(-c2ccc(N3CCN(c4ccc(OC[C@H]5CO[C@](Cn6cncn6)(c6ccc(Cl)cc6Cl)O5)cc4)CC3)cc2)c1=O` (stereo partly specified) [ITRACONAZOLE], the IC50 in experiment [13] and in experiment [14] was > 10 µM (inactive) throughout.
